Measurements taken from the CheMixHub viscosity set.

Assay: xn = mol fraction of the nth substance listed

OCCCl + CCCCCCO
viscosity [mPa·s], 101.33 kPa
Conditions	x1 = 0.097	x1 = 0.1953	x1 = 0.2962	x1 = 0.3953	x1 = 0.5314	x1 = 0.5962	x1 = 0.7121	x1 = 0.7968	x1 = 0.8982
298.15 K	3.93	3.7	3.544	3.406	3.241	3.175	3.057	2.983	2.921
303.15 K	3.33	3.18	3.068	2.909	2.78	2.718	2.615	2.551	2.529
308.15 K	2.824	2.68	2.572	2.494	2.38	2.329	2.276	2.237	2.208

NC=O + CCCCCO
298.15 K, 100 kPa
Conditions	viscosity [mPa·s]
x1 = 0.05608	3.38
x1 = 0.1142	3.39
x1 = 0.2182	3.48
x1 = 0.2483	3.57
x1 = 0.3487	3.73
x1 = 0.3776	3.77
x1 = 0.4665	3.98
x1 = 0.4951	4.02
x1 = 0.5681	4.15
x1 = 0.6207	4.23
x1 = 0.7099	4.32
x1 = 0.7533	4.33
x1 = 0.8001	4.23
x1 = 0.8518	4.07
x1 = 0.9349	3.69

OCCCl + CCCCCO
viscosity [mPa·s], 101.33 kPa
Conditions	x1 = 0.0959	x1 = 0.194	x1 = 0.2912	x1 = 0.3946	x1 = 0.4922	x1 = 0.5939	x1 = 0.6962	x1 = 0.8018	x1 = 0.8986
298.15 K	3.401	3.282	3.2	3.138	3.088	3.045	3.02	2.98	2.92
303.15 K	2.941	2.86	2.78	2.731	2.705	2.69	2.661	2.62	2.56
308.15 K	2.58	2.5	2.441	2.401	2.384	2.378	2.34	2.323	2.25

CCCCCCCCCCC + CCCCO
viscosity [mPa·s], 100 kPa
Conditions	x1 = 0.1003	x1 = 0.1998	x1 = 0.3006	x1 = 0.4	x1 = 0.5006	x1 = 0.6013	x1 = 0.6989	x1 = 0.8018	x1 = 0.8991
293.15 K	2.391	–	1.749	1.549	1.398	–	1.223	–	–
298.15 K	2.107	–	–	1.391	1.264	1.177	1.119	–	–
303.15 K	–	–	1.399	1.257	1.15	1.076	1.028	0.997	0.974
308.15 K	–	–	1.261	1.141	1.05	0.99	0.949	0.923	–
313.15 K	–	1.288	1.141	1.04	0.964	0.913	0.879	0.857	0.838
318.15 K	–	1.163	1.037	0.952	0.888	0.845	0.817	0.798	0.781
323.15 K	1.199	1.054	0.947	0.874	0.82	0.785	0.761	0.746	0.73

CCOC(=O)CCC(=O)OCC + CCCCO
100 kPa
Conditions	viscosity [mPa·s]
303.15 K, x1 = 0.1	1.845
308.15 K, x1 = 0.6998	1.635
313.15 K, x1 = 0.3	1.355
318.15 K, x1 = 0.2001	1.245
323.15 K, x1 = 0.8997	1.435

CN1CCC[C@H]1c1cccnc1 + CCCCO
100 kPa
Conditions	viscosity [mPa·s]
298.15 K, x1 = 0.3931	3.155
303.15 K, x1 = 0.7	3.205
313.15 K, x1 = 0.1	1.885

NC=O + CCCCO
Conditions	viscosity [mPa·s]
293.15 K, 101 kPa, x1 = 0.1093	3.225
298.15 K, 100 kPa, x1 = 0.09212	2.58
298.15 K, 100 kPa, x1 = 0.1905	2.67
298.15 K, 100 kPa, x1 = 0.2439	2.76
298.15 K, 100 kPa, x1 = 0.2798	2.82
298.15 K, 100 kPa, x1 = 0.3484	2.96
298.15 K, 100 kPa, x1 = 0.4402	3.17
298.15 K, 100 kPa, x1 = 0.5809	3.46
298.15 K, 100 kPa, x1 = 0.6667	3.58
298.15 K, 100 kPa, x1 = 0.7277	3.65
298.15 K, 100 kPa, x1 = 0.7869	3.66
298.15 K, 100 kPa, x1 = 0.8345	3.64
298.15 K, 100 kPa, x1 = 0.8771	3.6
298.15 K, 100 kPa, x1 = 0.9257	3.53
298.15 K, 100 kPa, x1 = 0.9728	3.43

OCCCl + CCCCO
viscosity [mPa·s], 101.33 kPa
Conditions	x1 = 0.097	x1 = 0.1922	x1 = 0.2941	x1 = 0.3928	x1 = 0.4937	x1 = 0.5925	x1 = 0.6943	x1 = 0.7957	x1 = 0.8961
298.15 K	2.59	2.593	2.597	2.616	2.641	2.672	2.702	2.731	2.781
303.15 K	2.29	2.25	2.271	2.288	2.316	2.363	2.38	2.4	2.428
308.15 K	2.028	2.029	2.026	2.027	2.047	2.075	2.1	2.12	2.14

OCCCl + CCCCOC(C)=O
viscosity [mPa·s], 101.33 kPa
Conditions	x1 = 0.1068	x1 = 0.2078	x1 = 0.3045	x1 = 0.4056	x1 = 0.5002	x1 = 0.5993	x1 = 0.7	x1 = 0.8008	x1 = 0.8994
298.15 K	0.718	0.784	0.865	0.97	1.105	1.286	1.549	1.919	2.359
303.15 K	0.669	0.732	0.801	0.894	1.013	1.169	1.391	1.704	2.106
308.15 K	0.627	0.684	0.746	0.828	0.932	1.07	1.262	1.518	1.849

CCCCCCCCCCC + CCCCOCCCC
viscosity [mPa·s], 101 kPa
Conditions	x2 = 0.1096	x2 = 0.2089	x2 = 0.3153	x2 = 0.4013	x2 = 0.5046	x2 = 0.6034	x2 = 0.7073	x2 = 0.8109	x2 = 0.9181
298.15 K	1.004	0.9429	0.889	0.8479	0.8073	0.7715	0.7333	0.7	0.6643
308.15 K	0.8817	0.8306	0.7845	0.7501	0.7159	0.6891	0.6599	0.6356	0.6114
318.15 K	0.7547	0.7179	0.6814	0.6523	0.624	0.5989	0.5761	0.5579	0.5355

NC=O + CCCCn1cc[n+](C)c1.F[B-](F)(F)F
101 kPa
Conditions	viscosity [mPa·s]
293.15 K, x2 = 0.7588	71.35
303.15 K, x2 = 0.5095	21.65

CCOC(=O)CCC(=O)OCC + CCCO
100 kPa
Conditions	viscosity [mPa·s]
293.15 K, x1 = 0.3998	1.875
313.15 K, x1 = 0.4999	1.325
318.15 K, x1 = 0.8997	1.545
323.15 K, x1 = 0.3998	1.065

OCCCl + CCCO
viscosity [mPa·s], 101.33 kPa
Conditions	x1 = 0.099	x1 = 0.1945	x1 = 0.2948	x1 = 0.3912	x1 = 0.4924	x1 = 0.5924	x1 = 0.693	x1 = 0.8071	x1 = 0.8959
298.15 K	1.761	1.802	1.842	1.92	2.028	2.148	2.281	2.428	2.6
303.15 K	1.58	1.62	1.67	1.735	1.813	1.891	2.02	2.16	2.3
308.15 K	1.4	1.44	1.48	1.542	1.606	1.678	1.76	1.88	2.001
